Values quoted from earlier work as cited in US8187800B2, “Methods for selecting active agents for cancer treatment” (Precision Therapeutics, Inc., priority 2007, dated 2012).

Tested on: breast cancer
Conditions: neoadjuvant therapy in breast cancer patients; 4 cycles FEC, then 4 cycles docetaxel

## CC(=O)O[C@@]12CO[C@@H]1C[C@H](O)[C@@]1(C)C(=O)[C@H](O)C3=C(C)[C@@H](OC(=O)[C@H](O)[C@@H](NC(=O)OC(C)(C)C)c4ccccc4)C[C@@](O)([C@@H](OC(=O)c4ccccc4)[C@H]21)C3(C)C [docetaxel]
  overall clinical response: 75%
